The values that follow come from US20240174679A1, “HETEROAROYL AMIDES AS LRRK2 INHIBITORS, PHARMACEUTICAL COMPOSITIONS, AND USES THEREOF” (MERCK SHARP & DOHME LLC, priority 2021, published 2024).

Chain of GST tagged truncated human mutant G2019S LRRK2 (Q5S007 970-2527 G2019S): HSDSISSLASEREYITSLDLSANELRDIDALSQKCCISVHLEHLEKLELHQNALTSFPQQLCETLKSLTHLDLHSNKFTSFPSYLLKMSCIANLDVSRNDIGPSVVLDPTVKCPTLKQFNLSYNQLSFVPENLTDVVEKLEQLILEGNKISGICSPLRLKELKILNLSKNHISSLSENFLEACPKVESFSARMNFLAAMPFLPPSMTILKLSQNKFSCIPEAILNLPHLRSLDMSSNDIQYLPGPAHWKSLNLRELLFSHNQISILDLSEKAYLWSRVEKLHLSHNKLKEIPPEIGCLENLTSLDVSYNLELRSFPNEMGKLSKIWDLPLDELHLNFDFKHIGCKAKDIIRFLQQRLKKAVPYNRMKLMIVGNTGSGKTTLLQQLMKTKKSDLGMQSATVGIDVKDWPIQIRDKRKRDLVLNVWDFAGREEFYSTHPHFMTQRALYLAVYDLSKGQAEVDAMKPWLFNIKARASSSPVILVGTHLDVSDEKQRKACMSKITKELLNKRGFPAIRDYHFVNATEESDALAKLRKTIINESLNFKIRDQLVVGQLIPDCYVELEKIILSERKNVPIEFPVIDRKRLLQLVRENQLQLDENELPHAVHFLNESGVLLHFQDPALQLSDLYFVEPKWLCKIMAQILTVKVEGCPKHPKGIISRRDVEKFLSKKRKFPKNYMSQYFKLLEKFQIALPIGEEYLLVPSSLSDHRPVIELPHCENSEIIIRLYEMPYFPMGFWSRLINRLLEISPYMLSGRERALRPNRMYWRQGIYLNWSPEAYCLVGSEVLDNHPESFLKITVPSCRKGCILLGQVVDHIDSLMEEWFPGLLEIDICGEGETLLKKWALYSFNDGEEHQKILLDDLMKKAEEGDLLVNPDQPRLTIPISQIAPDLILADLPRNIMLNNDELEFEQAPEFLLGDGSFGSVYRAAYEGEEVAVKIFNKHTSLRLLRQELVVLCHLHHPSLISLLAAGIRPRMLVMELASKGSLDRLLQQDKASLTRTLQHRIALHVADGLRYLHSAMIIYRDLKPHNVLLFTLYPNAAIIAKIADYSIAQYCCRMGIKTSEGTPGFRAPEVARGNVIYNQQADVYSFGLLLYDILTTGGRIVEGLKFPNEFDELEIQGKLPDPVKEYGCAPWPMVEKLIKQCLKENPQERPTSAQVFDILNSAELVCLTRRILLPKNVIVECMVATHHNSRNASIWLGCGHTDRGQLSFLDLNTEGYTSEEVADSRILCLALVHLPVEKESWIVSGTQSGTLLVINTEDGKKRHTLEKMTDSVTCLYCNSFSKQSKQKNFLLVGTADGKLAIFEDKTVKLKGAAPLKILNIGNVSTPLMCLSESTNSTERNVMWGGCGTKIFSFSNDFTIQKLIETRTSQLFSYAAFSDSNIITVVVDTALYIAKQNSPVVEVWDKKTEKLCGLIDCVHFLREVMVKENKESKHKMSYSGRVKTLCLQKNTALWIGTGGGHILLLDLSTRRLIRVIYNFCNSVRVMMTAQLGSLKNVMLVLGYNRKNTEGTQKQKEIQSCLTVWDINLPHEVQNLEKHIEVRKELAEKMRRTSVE

The assay concerns the target GST tagged truncated human mutant G2019S LRRK2 (Homo sapiens (Human), UniProt Q5S007, G2019S). Description: LRRK2 Km ATP LanthaScreen Assay. As to conditions: 134 μM ATP (Km ATP), LRRKtide substrate, negative log of mean IC50 (molar). In kind it is biochemical. The method, then: Unless otherwise noted, all reactions are magnetically stirred. Unless otherwise noted, when diethyl ether is used in the experiments described below, it is Fisher ACS certified material and is stabilized with BHT. Unless otherwise noted, “concentrated” and/or “solvent removed under reduced pressure” means evaporating the solvent from a solution or mixture using a rotary evaporator or vacuum pump. Unless otherwise noted, flash chromatography is carried out on a Teledyne Isco (Lincoln, NE), Analogix (Burlington, WI), or Biotage (Stockholm, SWE) automated chromatography system using a commercially available cartridge as the column. Columns may be purchased from Teledyne Isco, Analogix, Biotage, Varian (Palo Alto, CA), or Supelco (Bellefonte, PA) and are usually filled with silica gel as the stationary phase. Reversed phase preparative HPLC conditions, where used, can be found at the end of each experimental section. Aqueous solutions were concentrated on a Genevac (Ipswich, ENG) or by freeze-drying/lyophilization. Unless otherwise noted, all LRRK2 pIC50 data presented in tables refers to the LRRK2 G2019S Km ATP LanthaScreen™ assay (Life Technologies Corp., Carlsbad, CA) that is described in the Biological Assay section.
Biological Assay: LRRK2 Km ATP LanthaScreen™ Assay
Compound potency against LRRK2 kinase activity was determined using LanthaScreen™ technology from Life Technologies Corporation (Carlsbad, CA) using a GST20 tagged truncated human mutant G2019S LRRK2 in the presence of the fluorescein-labeled peptide substrate LRRKtide® (LRRK2 phosphorylated ezrin/radixin/moesin (ERM)), also from Life Technologies. The data presented for the Km ATP LanthaScreen™ Assay represents mean IC50 values based on several test results and may have reasonable deviations depending on the specific conditions and reagents used. Km is the Michaelis constant of an enzyme and is defined as the concentration of native substrate (ATP for a kinase) which permits the enzyme to achieve half Vmax (Vmax=rate of reaction when the enzyme is saturated with substrate). IC50 (half-maximal inhibitory concentration) represents the concentration of inhibitor required to inhibit LRRK2 kinase activity by 50%. Assays were performed in the presence of 134 μM ATP (Km ATP). Upon completion, the assay was stopped, and phosphorylated substrate detected with a terbium (Tb)-labeled anti-pERM antibody (cat. no. PV4898). The compound dose response was prepared by diluting a 10 mM stock of compound to a maximum concentration of 9.99 μM in 100% DMSO, followed by custom fold serial dilution in DMSO nine times. 20 nL of each dilution was spotted via a Labcyte Echo onto a 384-well black-sided plate (Corning 3575) followed by 15 μL of a 1.25 nM enzyme solution in 1× assay buffer (50 mM Tris pH 8.5, 10 mM MgCl2, 0.01% Brij-35, 1 mM EGTA, 2 mM dithiothreitol, 0.05 mM sodium orthovanadate). Following a 15-min incubation period at rt, the kinase reaction was started with the addition of 5 μL of 400 nM fluorescein-labeled LRRKtide® (LRRK2 phosphorylated ezrin/radixin/moesin (ERM)) peptide substrate and 134 μM ATP solution in 1× assay buffer. The reaction was allowed to progress at ambient temperature for 90 min. The reaction was then stopped by the addition of 20 μL of TR-FRET Dilution Buffer (Life Technologies, Carlsbad, CA) containing 2 nM Tb-labeled anti-phospho LRRKtide® (LRRK2 phosphorylated ezrin/radixin/moesin (ERM)) antibody and 10 mM EDTA (Life Technologies, Carlsbad, CA). After an incubation period of 1 h at rt, the plate was read on an EnVision® multimode plate reader (Perkin Elmer, Waltham, MA) with an excitation wavelength of 337 nm (Laser) and a reading emission at both 520 and 495 nm. Compound IC50 values were interpolated from nonlinear regression best-fits of the log of the final compound concentration, plotted as a function of the 520/495-nm emission ratio using activity base “Abase”). Abase uses a 4 parameter (4P) logistic fit based on the Levenberg-Marquardt algorithm. […]
In general terms: In TR-FRET formats the signal depends on donor and acceptor labels being close together.
In the case of `CC(C1CC1)n1cc(NC(=O)c2csc(-c3cn[nH]c3)n2)c(C(F)F)n1` (centres unmarked) [Example 3-1, N-(1-(1-Cyclopropylethyl)-3-(difluoromethyl)-1H-pyrazol-4-yl)-2-(1H-pyrazol-4-yl)thiazole-4-carboxamide], the “LRRK2 pIC50” value is 7.27. `O=C(Nc1cn(C2CCC2)nc1C1CC1)c1csc(-c2cn[nH]c2)n1` [Example 3-2, N-(1-cyclobutyl-3-cyclopropyl-1H-pyrazol-4-yl)-2-(1H-pyrazol-4-yl)-1,3-thiazole-4-carboxamide]: the “LRRK2 pIC50” value was 8.35. With `O=C(Nc1cnn(C2CCC2)c1C1CC1)c1csc(-c2cn[nH]c2)n1` [Example 3-3, N-(1-cyclobutyl-5-cyclopropyl-1H-pyrazol-4-yl)-2-(1H-pyrazol-4-yl)-1,3-thiazole-4-carboxamide] the figure was 7.16. With `O=C(Nc1cnn(C2CC2)c1)c1cccc(-c2cnn(CC(F)(F)F)c2)n1` [Example 4-1, N-(1-Cyclopropyl-1H-pyrazol-4-yl)-6-(1-(2,2,2-trifluoroethyl)-1H-pyrazol-4-yl)picolinamide] the figure was 7.98; with `Cc1nc(C(=O)Nc2cnn(C3CCC3)c2)ccc1C#N` [Example 4-2, 5-cyano-N-(1-cyclobutyl-1H-pyrazol-4-yl)-6-methylpyridine-2-carboxamide], 5.07. Turning to `CC(C)Nc1nc(C(=O)Nc2cnn(C3CCC3)c2)cs1` [Example 4-3, N-(1-cyclobutyl-1H-pyrazol-4-yl)-2-[(1-methylethyl)amino]-1,3-thiazole-4-carboxamide], the “LRRK2 pIC50” value is given as 6.19. Consider `O=C(Nc1cnn(C2CCC2)c1)c1coc(-c2ccccc2)n1` [Example 4-4, N-(1-cyclobutyl-1H-pyrazol-4-yl)-2-phenyl-1,3-oxazole-4-carboxamide], for which the “LRRK2 pIC50” value is reported as 5.68.

Consider `CSc1nc(C(=O)Nc2cnn(C3CCC3)c2)cs1` [Example 4-5, N-(1-cyclobutyl-1H-pyrazol-4-yl)-2-(methylsulfanyl)-1,3-thiazole-4-carboxamide], for which the “LRRK2 pIC50” value came to 5.82. The figure for `CC(C)Oc1cccc(C(=O)Nc2cnn(C3CCC3)c2)n1` [Example 4-6, N-(1-cyclobutyl-1H-pyrazol-4-yl)-6-(1-methylethoxy) pyridine-2-carboxamide] is 7.10; for `O=C(Nc1cnn(C2CCC2)c1)c1ccn(-c2ccccc2)n1` [Example 4-7, N-(1-cyclobutyl-1H-pyrazol-4-yl)-1-phenyl-1H-pyrazole-3-carboxamide] it is 5.56. Turning to `CC(=O)Nc1cccc(C(=O)Nc2cnn(C3CCC3)c2)n1` [Example 4-8, 6-(acetylamino)-N-(1-cyclobutyl-1H-pyrazol-4-yl)pyridine-2-carboxamide], the “LRRK2 pIC50” value worked out at 6.33. The figure for `O=C(Nc1cnn(C2CCC2)c1)c1csc(-c2ccccc2)n1` [Example 4-9, N-(1-cyclobutyl-1H-pyrazol-4-yl)-2-phenyl-1,3-thiazole-4-carboxamide] is 6.70; for `COc1cccc(C(=O)Nc2cnn(C3CCC3)c2)n1` [Example 4-10, N-(1-cyclobutyl-1H-pyrazol-4-yl)-6-methoxypyridine-2-carboxamide] it is 5.35.

Consider `O=C(Nc1cnn(C2CCC2)c1)c1ccn(-c2ncccn2)n1` [Example 4-11, N-(1-cyclobutyl-1H-pyrazol-4-yl)-1-pyrimidin-2-yl-1H-pyrazole-3-carboxamide], for which the “LRRK2 pIC50” value is reported as 5.71. For `CC(=O)Nc1nc(C(=O)Nc2cnn(C3CCC3)c2)cs1` [Example 4-12, 2-(acetylamino)-N-(1-cyclobutyl-1H-pyrazol-4-yl)-1,3-thiazole-4-carboxamide], the “LRRK2 pIC50” value is recorded as 6.18. `O=C(Nc1cnn(C2CCC2)c1)c1cccc(-n2cccn2)n1` [Example 4-13, N-(1-cyclobutyl-1H-pyrazol-4-yl)-6-(1H-pyrazol-1-yl)pyridine-2-carboxamide]: the “LRRK2 pIC50” value was determined as 6.76. Regarding `O=C(Nc1cnn(C2CCC2)c1)c1csc(Nc2ccccc2)n1` [Example 4-14, N-(1-cyclobutyl-1H-pyrazol-4-yl)-2-(phenylamino)-1,3-thiazole-4-carboxamide], the “LRRK2 pIC50” value is 6.12. In the case of `Cn1cc(NC(=O)c2csc(-c3cn[nH]c3)n2)cn1` [Example 4-15, N-(1-methyl-1H-pyrazol-4-yl)-2-(1H-pyrazol-4-yl)thiazole-4-carboxamide], the “LRRK2 pIC50” value was 7.28. With `O=C(Nc1cnn(C2CCC2)c1)c1cccc(N2CCCC2)n1` [Example 4-16, N-(1-cyclobutyl-1H-pyrazol-4-yl)-6-(pyrrolidin-1-yl)picolinamide] the figure was 6.04.

Regarding `O=C(Nc1cnn(C2CCC2)c1)c1cccc(-n2ccnc2)n1` [Example 4-17, N-(1-cyclobutyl-1H-pyrazol-4-yl)-6-(1H-imidazol-1-yl)picolinamide], the “LRRK2 pIC50” value is reported as 5.91. Turning to `O=C(Nc1cnn(C2CCC2)c1)c1cccc(N2CCCCC2)n1` [Example 4-18, N-(1-cyclobutyl-1H-pyrazol-4-yl)-6-(piperidin-1-yl)picolinamide], the “LRRK2 pIC50” value is reported as 5.81. `O=C(Nc1cnn(CC2(F)COC2)c1)c1csc(-c2cn[nH]c2)n1` [Example 5-1, N-(1-((3-Fluorooxetan-3-yl)methyl)-1H-pyrazol-4-yl)-2-(1H-pyrazol-4-yl)thiazole-4-carboxamide]: the “LRRK2 pIC50” value is recorded as 7.50. Turning to `Cn1cc(NC(=O)c2csc(-c3cn[nH]c3)n2)c(CO)n1` [Example 6-1, N-(3-(Hydroxymethyl)-1-methyl-1H-pyrazol-4-yl)-2-(1H-pyrazol-4-yl)thiazole-4-carboxamide], the “LRRK2 pIC50” value amounted to 7.47. `O=C(Nc1cnn(CC2CCC2)c1)c1csc(-c2cn[nH]c2)n1` [Example 7-1, N-(1-(Cyclobutylmethyl)-1H-pyrazol-4-yl)-2-(1H-pyrazol-4-yl)thiazole-4-carboxamide]: the “LRRK2 pIC50” value was 7.76.

For `O=C(Nc1cn(CC(F)F)nc1C(F)F)c1csc(-c2cn[nH]c2)n1` [Example 7-2, N-[1-(2,2-difluoroethyl)-3-(difluoromethyl)-1H-pyrazol-4-yl]-2-(1H-pyrazol-4-yl)-1,3-thiazole-4-carboxamide], the “LRRK2 pIC50” value amounted to 7.58.

With `COCCn1cc(NC(=O)c2csc(-c3cn[nH]c3)n2)c(C(F)F)n1` [Example 7-3, N-[3-(difluoromethyl)-1-(2-methoxyethyl)-1H-pyrazol-4-yl]-2-(1H-pyrazol-4-yl)-1,3-thiazole-4-carboxamide], the “LRRK2 pIC50” value is 7.27. Regarding `O=C(Nc1cnn(CC2CCNCC2)c1)c1csc(-c2cn[nH]c2)n1` [Example 7-4, N-{1-[(piperidin-4-yl)methyl]-1H-pyrazol-4-yl}-2-(1H-pyrazol-4-yl)-1,3-thiazole-4-carboxamide], the “LRRK2 pIC50” value amounted to 6.79.

For `O=C(Nc1cn(CC2CCCCO2)nc1C(F)F)c1csc(-c2cn[nH]c2)n1` (centres unmarked) [Example 7-5, N-[3-(difluoromethyl)-1-(tetrahydro-2H-pyran-2-ylmethyl)-1H-pyrazol-4-yl]-2-(1H-pyrazol-4-yl)-1,3-thiazole-4-carboxamide], the “LRRK2 pIC50” value was determined as 7.32. Consider `CN(C)CCCn1cc(NC(=O)c2csc(-c3cn[nH]c3)n2)cn1` [Example 7-6, N-{1-[3-(dimethylamino)propyl]-1H-pyrazol-4-yl}-2-(1H-pyrazol-4-yl)-1,3-thiazole-4-carboxamide], for which the “LRRK2 pIC50” value worked out at 6.43.
